In paper PMC10120551, “Novel Glu-based pyrazolo[3,4-d]pyrimidine analogues: design, synthesis and biological evaluation as DHFR and TS dual inhibitors” (Journal of Enzyme Inhibition and Medicinal Chemistry, 2023):

Legend:
[1] = tested on: HOP-92; experiment: NCI one-dose screen (SRB); format: cell-based, human; settings: HOP-92, NSCLC; 10 µM single dose
Protocol: (§1) The growth percentage (G%) and cell viability of the herein target compounds 6a–l, 7a,b, and 9a–c have been screened towards a full panel of 59 cancer cells at NCI’s Developmental Therapeutics Program (NCI-DTP, MD, USA)[21]. The submitted analogues were initially examined for preliminary in vitro anticancer activity using sulforhodamine B (SRB) assay at 10 µM as a single dose to evaluate cell growth and viability according to the procedure of Drug Evaluation Branch[22]^,[23].
(§2) Different types of tumours – colon, NSCLC, leukaemia, CNS, renal, breast, ovarian, melanoma, and prostate cancers – were investigated as a full panel of 59 cell lines, and the attained results are cited in Figures S1–S17 (see Supplementary Material) where the value recorded is the growth relative to that of both the negative control and zero-time number of cells in which both growth inhibition (GI%; 0–100%) and lethality (L%; 0–100%) percentages can be identified. The growth inhibition means percentages (MGI%) for the examined target analogues towards the different treated 59 cancer cells were presented in Figure 2.
(§3) The designed analogues were submitted to NCI-Chemotherapeutic Agents Repository (MD, USA) for screening on a panel of 59 cancer cell lines. All compounds were initially examined at 10 µM concentration (Single-Dose Screen), and then the most efficient analogue 6i was screened further at 0.01–100 µM (Five-Dose Screen). The screening procedures were performed according to NCI-Drug Evaluation Branch protocol using SRB protein assay, as described previously[21]^,[66]. The experimental procedures were detailed in the Supporting Information.

[2] = tested on: 786-0; experiment: NCI one-dose screen (SRB); format: cell-based, human; settings: 786-0, Renal; 10 µM single dose
Protocol: as §1, §2, §3

[3] = tested on: SK-MEL-5; experiment: NCI one-dose screen (SRB); format: cell-based, human; settings: SK-MEL-5, Melanoma; 10 µM single dose
Protocol: as §1, §2, §3

[4] = tested on: COLO 205; experiment: NCI one-dose screen (SRB); format: cell-based, human; settings: COLO 205, Colon cancer; 10 µM single dose
Protocol: as §1, §2, §3

[5] = tested on: DU-145; experiment: NCI one-dose screen (SRB); format: cell-based, human; settings: DU-145, Prostate; 10 µM single dose
Protocol: as §1, §2, §3

[6] = tested on: SW-620; experiment: NCI one-dose screen (SRB); format: cell-based, human; settings: SW-620, Colon cancer; 10 µM single dose
Protocol: as §1, §2, §3

[7] = tested on: OVCAR-3; experiment: NCI one-dose screen (SRB); format: cell-based, human; settings: OVCAR-3, Ovarian; 10 µM single dose
Protocol: as §1, §2, §3

[8] = tested on: HS 578 T; experiment: NCI one-dose screen (SRB); format: cell-based, human; settings: Breast cancer, 10 µM single dose
Protocol: as §1, §2, §3

[9] = tested on: NCI-H522; experiment: NCI one-dose screen (SRB); format: cell-based, human; settings: NCI-H522, NSCLC; 10 µM single dose
Protocol: as §1, §2, §3

[10] = tested on: SNB-19; experiment: NCI one-dose screen (SRB); format: cell-based, human; settings: SNB-19, CNS cancer; 10 µM single dose
Protocol: as §1, §2, §3

[11] = tested on: SN12C; experiment: NCI one-dose screen (SRB); format: cell-based, human; settings: Renal cancer, 10 µM single dose
Protocol: as §1, §2, §3

[12] = tested on: OVCAR-8; experiment: NCI one-dose screen (SRB); format: cell-based, human; settings: OVCAR-8, Ovarian; 10 µM single dose
Protocol: as §1, §2, §3

[13] = tested on: PC-3; experiment: NCI one-dose screen (SRB); format: cell-based, human; settings: PC-3, Prostate; 10 µM single dose
Protocol: as §1, §2, §3

[14] = tested on: UACC-62; experiment: NCI one-dose screen (SRB); format: cell-based, human; settings: UACC-62, Melanoma; 10 µM single dose
Protocol: as §1, §2, §3

[15] = tested on: NCI-H23; experiment: NCI one-dose screen (SRB); format: cell-based, human; settings: NCI-H23, NSCLC; 10 µM single dose
Protocol: as §1, §2, §3

[16] = tested on: EKVX; experiment: NCI one-dose screen (SRB); format: cell-based, human; settings: NSCLC, 10 µM single dose
Protocol: as §1, §2, §3

[17] = tested on: OVCAR-4; experiment: NCI one-dose screen (SRB); format: cell-based, human; settings: OVCAR-4, Ovarian cancer; 10 µM single dose
Protocol: as §1, §2, §3

[18] = tested on: MDA-MB-468; experiment: NCI one-dose screen (SRB); format: cell-based, human; settings: MDA-MB-468, Breast; 10 µM single dose
Protocol: as §1, §2, §3

[19] = tested on: NCI/ADR-RES; experiment: NCI one-dose screen (SRB); format: cell-based, human; settings: Ovarian cancer, 10 µM single dose
Protocol: as §1, §2, §3

[20] = tested on: MOLT-4; experiment: NCI one-dose screen (SRB); format: cell-based, human; settings: MOLT-4, Leukaemia; 10 µM single dose
Protocol: as §1, §2, §3

[21] = tested on: SF-295; experiment: NCI one-dose screen (SRB); format: cell-based, human; settings: SF-295, CNS; 10 µM single dose
Protocol: as §1, §2, §3

[22] = tested on: M14; experiment: NCI one-dose screen (SRB); format: cell-based, human; settings: M14, Melanoma; 10 µM single dose
Protocol: as §1, §2, §3

[23] = tested on: UACC-62; experiment: cells; settings: Homo sapiens
[24] = tested on: TK-10; experiment: cells; settings: Homo sapiens
[25] = tested on: UACC-257; settings: UACC-257, Melanoma; five-dose 0.01–100 µM
[26] = tested on: HL-60(TB); settings: Leukaemia, five-dose 0.01–100 µM
[27] = tested on: SNB-19; experiment: cells; settings: Homo sapiens
[28] = tested on: Renal cancer subpanel; experiment: NCI five-dose screen, subpanel MG-MID; format: cell-based, human
Protocol: (Figures S53–S56 in Supporting Information). This assay evaluates GI50, TGI, and LC50 parameters, as cited in Table 1. Their values correspondingly represent the GI level, cytostatic impact, and cytotoxicity parameter. Furthermore, based on the GI50 values, the mean graph midpoints (MG-MID) for both full NCI 59 cell panel and subpanel cancer cell lines were evaluated, affording a median potency parameter for the examined compound 6i, as depicted in Table 2.
Moreover, the selectivity index (SI) of the most efficient analogue 6i was calculated from the division of full-panel MG-MID by subpanel MG-MID. A value greater than 6 implies high selectivity, whereas a ratio from 3 to 6 denotes moderate selectivity. Otherwise, the compound is referred to as non-selective.[24] […] Therefore, the outstanding anti-cancer profile of compound 6i against the herein examined NCI-59 cell panels inspired us to explore its mechanism of action further.
as §3

`CCOC(=O)CC[C@H](NC(=O)c1ccc(NC(=O)Cn2cnc3c(c(C)nn3-c3ccc(Br)cc3)c2=O)cc1)C(=O)OCC` [Compound 6i] was tested, and the GI% [1] was 78.29%, the GI% [2] was 82.93% and the “L% (lethality)” value [3] was 1.38%. For the same molecule, the GI% [4] was 71.69%, the GI% [5] was 85.62% and the GI% [6] was 62.17%. It also gave a GI% [7] of 96.83%, a GI% [8] of 75.80% and a GI% [9] of 52.34%. The GI% [10] was 61.23%, the GI% [11] was 57.69% and the GI% [12] was 87.86%. The GI% [13] was 91.71%, the GI% [14] was 63.82% and the GI% [15] was 87.19%. The GI% [16] was 78.12%, the GI% [17] was 66.09% and the GI% [18] was 92.44%. The GI% [19] was 51.78%, the GI% [20] was 52.51% and the GI% [21] was 89.78%. The GI% [22] was 74.15%, the GI50 ([23]; UACC-62) was 13.3 µM and the CC50 ([23]; UACC-62, read-out: LC50) was 77.8 µM. It also gave a GI50 ([24]; TK-10) of 31.3 µM, a CC50 ([24]; TK-10, read-out: LC50) greater than 100 µM and a TGI [25] greater than 100 µM. For the same molecule, the TGI [26] was greater than 100 µM, the GI50 ([27]; SNB-19) was 12.1 µM and the CC50 ([27]; SNB-19, read-out: LC50) was 61.3 µM. The MG-MID ([28]; Renal cancer subpanel, based on GI50) was 19.19 µM and the Selectivity index ([28]; Renal cancer, full-panel MG-MID / subpanel MG-MID) was 1.06.
